This is an account of results in paper PMC3488005, “A yeast expression system for functional and pharmacological studies of the malaria parasite Ca^2+/H^+ antiporter” (Malaria Journal, 2012).

For one experiment, the target named is T1, PfCHA (Plasmodium falciparum, UniProt C6KSN3).
T1 construct: gene PF3D7_0603500; full-length ORF (about 1321 bp, approx. 49 kDa) in pGREG505 (GAL1 promoter), expressed in S. cerevisiae vcx1 knock-out (Y03825), vacuole membrane; apoaequorin co-expressed as reporter
T1 sequence (C6KSN3 1-441): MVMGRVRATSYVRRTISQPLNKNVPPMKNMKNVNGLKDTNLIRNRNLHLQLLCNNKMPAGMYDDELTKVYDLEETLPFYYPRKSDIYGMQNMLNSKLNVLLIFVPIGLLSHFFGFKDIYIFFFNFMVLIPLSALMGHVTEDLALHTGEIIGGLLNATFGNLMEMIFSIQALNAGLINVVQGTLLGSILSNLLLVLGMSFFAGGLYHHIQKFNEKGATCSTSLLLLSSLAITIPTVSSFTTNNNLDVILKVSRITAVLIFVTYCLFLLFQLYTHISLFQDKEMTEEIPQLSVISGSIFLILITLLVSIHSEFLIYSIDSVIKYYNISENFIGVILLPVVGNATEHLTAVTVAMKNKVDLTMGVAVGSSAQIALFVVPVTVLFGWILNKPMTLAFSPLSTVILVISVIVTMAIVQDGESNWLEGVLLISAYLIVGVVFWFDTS
The experiment is described as follows: whole-cell apoaequorin luminescence of cytosolic Ca2+ (AUC […]-16 s), 96-well. Format: cell-based.

In the next experiment the target is T2, Vcx1p (VCX1) (Saccharomyces cerevisiae, UniProt Q99385).
T2 construct: full-length gene (1236 bp) in pGREG505 (GAL1 promoter), re-expressed in S. cerevisiae vcx1 knock-out (Y03825); apoaequorin co-expressed as reporter
T2 sequence (Q99385 1-411): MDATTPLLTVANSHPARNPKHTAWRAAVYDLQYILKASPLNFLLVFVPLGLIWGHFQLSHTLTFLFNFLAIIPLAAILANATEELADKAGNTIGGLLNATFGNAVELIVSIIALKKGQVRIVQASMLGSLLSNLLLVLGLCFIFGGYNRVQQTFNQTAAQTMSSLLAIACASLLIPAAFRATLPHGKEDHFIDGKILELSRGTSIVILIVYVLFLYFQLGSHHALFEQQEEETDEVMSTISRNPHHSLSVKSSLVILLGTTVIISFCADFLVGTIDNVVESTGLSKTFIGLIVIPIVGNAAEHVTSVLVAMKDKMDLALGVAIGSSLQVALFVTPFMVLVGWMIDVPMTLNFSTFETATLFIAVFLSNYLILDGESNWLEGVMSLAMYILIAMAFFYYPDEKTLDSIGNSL
Described as above. In kind it is cell-based. The following applies: read-out: concentrations at which their transport was inhibited by 50%.

Take `N=C(N)SCCc1ccc(OCc2ccc([N+](=O)[O-])cc2)cc1` [KB-R7943]: the IC50 against PfCHA came to 17.5 µM; at Vcx1p (VCX1) it was 12.5 µM.
